Source: patent publication US20250368647A1, “NITROGEN CONTAINING CONDENSED 2,3-DIHYDROQUINAZOLINONE COMPOUNDS AS NAV1.8 INHIBITORS” (GLAXOSMITHKLINE INTELLECTUAL PROPERTY DEVELOPMENT LIMITED, priority 2022, published 2025)

target: human Nav1.8 (Homo sapiens (Human), UniProt Q9Y5Y9); test: QPatch 48 HTX voltage-clamp electrophysiology, half inactivation state (V1/2) protocol, HEK293-Nav1.8 cells; assay type: cell-based; conditions: HEK293 cells expressing human Nav1.8, human Navβ1 and human TREK1, P2 current
Sequence (Q9Y5Y9 whole entry): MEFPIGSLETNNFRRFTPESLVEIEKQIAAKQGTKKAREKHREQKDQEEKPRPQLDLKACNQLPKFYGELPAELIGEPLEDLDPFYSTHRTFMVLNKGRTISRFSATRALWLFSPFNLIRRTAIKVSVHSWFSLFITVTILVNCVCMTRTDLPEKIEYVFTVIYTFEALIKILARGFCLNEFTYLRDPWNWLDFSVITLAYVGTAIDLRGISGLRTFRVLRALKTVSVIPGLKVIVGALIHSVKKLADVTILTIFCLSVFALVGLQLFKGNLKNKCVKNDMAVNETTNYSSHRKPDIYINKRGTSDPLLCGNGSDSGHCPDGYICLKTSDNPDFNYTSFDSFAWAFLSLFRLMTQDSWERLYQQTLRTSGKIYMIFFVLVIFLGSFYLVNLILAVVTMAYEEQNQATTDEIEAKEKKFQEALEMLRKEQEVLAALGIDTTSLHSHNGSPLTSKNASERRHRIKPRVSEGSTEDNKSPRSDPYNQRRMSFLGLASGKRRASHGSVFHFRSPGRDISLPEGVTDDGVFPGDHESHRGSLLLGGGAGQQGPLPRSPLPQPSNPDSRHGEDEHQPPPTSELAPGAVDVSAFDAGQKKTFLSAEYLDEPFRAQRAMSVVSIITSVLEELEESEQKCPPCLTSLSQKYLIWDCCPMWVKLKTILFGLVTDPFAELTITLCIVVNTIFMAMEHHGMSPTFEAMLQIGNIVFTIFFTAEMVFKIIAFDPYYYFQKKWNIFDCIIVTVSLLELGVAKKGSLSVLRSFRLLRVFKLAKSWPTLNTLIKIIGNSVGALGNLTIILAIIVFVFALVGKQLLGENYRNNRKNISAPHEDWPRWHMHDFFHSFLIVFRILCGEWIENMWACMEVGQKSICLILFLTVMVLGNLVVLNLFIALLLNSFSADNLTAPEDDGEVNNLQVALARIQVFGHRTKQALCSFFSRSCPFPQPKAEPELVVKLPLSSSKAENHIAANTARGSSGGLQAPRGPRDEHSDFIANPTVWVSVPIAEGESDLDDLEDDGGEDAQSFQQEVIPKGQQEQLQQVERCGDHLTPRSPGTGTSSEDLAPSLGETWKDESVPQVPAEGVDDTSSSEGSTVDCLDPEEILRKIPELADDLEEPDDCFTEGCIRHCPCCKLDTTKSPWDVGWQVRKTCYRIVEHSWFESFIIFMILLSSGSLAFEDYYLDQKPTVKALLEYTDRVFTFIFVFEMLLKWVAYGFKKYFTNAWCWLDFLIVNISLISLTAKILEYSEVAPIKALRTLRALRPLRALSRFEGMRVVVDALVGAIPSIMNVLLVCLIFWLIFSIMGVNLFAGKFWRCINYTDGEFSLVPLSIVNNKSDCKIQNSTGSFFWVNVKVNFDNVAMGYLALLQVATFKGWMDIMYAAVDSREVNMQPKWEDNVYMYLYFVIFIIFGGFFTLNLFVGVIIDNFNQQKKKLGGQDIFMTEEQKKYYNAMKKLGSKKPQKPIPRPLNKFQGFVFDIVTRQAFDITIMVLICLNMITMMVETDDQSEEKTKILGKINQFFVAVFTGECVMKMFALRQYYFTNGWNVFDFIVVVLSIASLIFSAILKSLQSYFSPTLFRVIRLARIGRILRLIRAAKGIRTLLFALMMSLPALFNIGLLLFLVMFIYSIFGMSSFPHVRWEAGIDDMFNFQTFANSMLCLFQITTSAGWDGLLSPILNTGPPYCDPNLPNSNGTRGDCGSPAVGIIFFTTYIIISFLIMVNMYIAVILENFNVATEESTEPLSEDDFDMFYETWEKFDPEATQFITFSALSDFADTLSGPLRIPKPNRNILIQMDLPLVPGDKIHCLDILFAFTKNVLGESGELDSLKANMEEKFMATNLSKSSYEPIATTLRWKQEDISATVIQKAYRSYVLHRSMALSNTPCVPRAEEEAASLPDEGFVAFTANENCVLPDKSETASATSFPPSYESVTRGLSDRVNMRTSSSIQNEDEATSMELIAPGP
Sequence (Q07699 19-218 partner): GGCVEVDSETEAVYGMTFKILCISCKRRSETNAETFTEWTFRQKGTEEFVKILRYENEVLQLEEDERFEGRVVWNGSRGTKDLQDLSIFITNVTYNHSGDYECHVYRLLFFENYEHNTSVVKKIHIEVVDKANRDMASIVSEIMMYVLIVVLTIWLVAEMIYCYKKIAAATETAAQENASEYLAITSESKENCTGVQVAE
How it was run: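 HEK293 cells co-expressing Navβ1 and TREK1 were voltage-clamped from −100 mV: a 20 ms step to 0 mV, 8 s inactivation at −46 mV, 20 ms at −100 mV, then a 20 ms P2 test step to 0 mV, repeated every 15 s. P2 current was normalized to vehicle and full block, corrected for run-down, and Hill-fitted (4–6 concentrations) for IC50.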

Row | SMILES | Nav1.8, pIC50
1 | Cl.N#Cc1c(F)ccc2c1CNCCc1[nH]c(=O)ccc1N1CN2c2cc(C(F)(F)F)c(F)cc2C1=O [Example 82, 2,8-Difluoro-15,19-dioxo-3-(trifluoromethyl)-10,11,12,13,14,15-hexahydro-19H-5,18-methanodibenzo[c,f]pyrido[3,2-j][1,5,9]triazacyclotridecine-9-carbonitrile hydrochloride] | 7.9
2 | N#Cc1c(F)ccc2c1CNCCc1[nH]c(=O)ccc1N1CN2c2cc(F)c(F)cc2C1=O [Example 83, 2,3,8-Trifluoro-15,19-dioxo-10,11,12,13,14,15-hexahydro-19H-5,18-methano-dibenzo[c,f]pyrido[3,2-j][1,5,9]triazacyclotridecine-9-carbonitrile] | 6.8
3 | O=C1c2cc(F)c(F)cc2N2CN1c1ccc(=O)[nH]c1CCNCc1c2ccc(F)c1O.O=CO [Example 84, 2,3,8-Trifluoro-9-hydroxy-10,11,12,13-tetrahydro-19H-5,18-methanodibenzo-[c,f]pyrido[3,2-j][1,5,9]triazacyclotridecine-15,19(14H)-dione, formic acid salt] | 5.5
4 | Cl.O=C1c2cc(F)c(C(F)(F)F)cc2N2CN1c1ccc(=O)[nH]c1CCNCc1c2ccc(F)c1O [Example 85, 2,8-Difluoro-9-hydroxy-3-(trifluoromethyl)-10,11,12,13-tetrahydro-19H-5,18-methanodibenzo[c,f]pyrido[3,2-i][1,5,9]triazacyclotridecine-15,19(14H)-dione hydrochloride] | 6.4
5 | Cl.O=C1c2cc(F)c(F)cc2N2CN1c1ccc(=O)[nH]c1CCNCc1cc(OC(F)(F)F)ccc12 [Example 86, 2,3-Difluoro-8-(trifluoromethoxy)-10,11,12,13-tetrahydro-19H-5,18-methanodibenzo[c,f]pyrido[3,2-j][1,5,9]triazacyclotridecine-15,19(14H)-dione hydrochloride] | 7.5
6 | Cl.O=C1c2cc(F)c(F)cc2N2CN1c1ccc(=O)[nH]c1CCNCc1c2ccc(OC(F)(F)F)c1F [Example 87, 2,3,9-Trifluoro-8-(trifluoromethoxy)-10,11,12,13-tetrahydro-19H-5,18-methanodibenzo[c,f]pyrido[3,2-j][1,5,9]triazacyclotridecine-15,19(14H)-dione hydrochloride] | 7.9
7 | Cl.N#Cc1cc2c(cc1F)C(=O)N1CN2c2ccc(OC(F)(F)F)cc2CNCCc2[nH]c(=O)ccc21 [Example 88, 2-Fluoro-15,19-dioxo-8-(trifluoromethoxy)-10,11,12,13,14,15-hexahydro-19H-5,18-methanodibenzo[c,f]pyrido[3,2-j][1,5,9]triazacyclotridecine-3-carbonitrile hydrochloride] | 7.7
8 | Cl.N#Cc1cc2c(cc1F)C(=O)N1CN2c2ccc(OC(F)(F)F)c(F)c2CNCCc2[nH]c(=O)ccc21 [Example 89, 2,9-Difluoro-15,19-dioxo-8-(trifluoromethoxy)-10,11,12,13,14,15-hexahydro-19H-5,18-methanodibenzo[c,f]pyrido[3,2-j][1,5,9]triazacyclotridecine-3-carbonitrile hydrochloride] | 8.1
9 | O=C1c2cc(C(F)(F)F)c(F)cc2N2CN1c1ccc(=O)[nH]c1NCCCc1cc(F)ccc12 [Example 90, 3,8-Difluoro-2-(trifluoromethyl)-10,11,12,13-tetrahydro-19H-5,18-methanodibenzo[f,i]-pyrido[2,3-b][1,4,8]triazacyclotridecine-15,19(14H)-dione] | 7.7
10 | O=C1c2cc(F)c(F)cc2N2CN1c1ccc(=O)[nH]c1NCCCc1cc(F)ccc12 [Example 91, 2,3,8-Trifluoro-10,11,12,13-tetrahydro-19H-5,18-methanodibenzo[f,i]pyrido[2,3-b]-[1,4,8]triazacyclotridecine-15,19(14H)-dione] | 7.9
